Results as given in patent US10280198B2, “Therapeutic agents for reducing parathyroid hormone levels” (KAI PHARMACEUTICALS, INC., priority 2009, dated 2019).
Like-named read-outs stand apart in the source and are kept apart here. Square brackets hold non-standard residues; d marks the D form. Peptide text beside a SMILES is read from it.

Columns and labels:
[1] = tested on: rat peritoneal mast cells; test: In vitro histamine induction in rat peritoneal mast cells; format: cell-based
Procedure: To further evaluate the relationship between compound structure and histamine release, a series of compounds was prepared and assessed for their ability to trigger induction of histamine in an in vitro assay using rat peritoneal mast cells. In this assay, compounds are incubated at 10 μM for 15 minutes at 37° C. with cells isolated from peritoneal lavage of SD rats. Following incubation, cell medium is collected and histamine is determined.
Accordingly, and as can be appreciated in view of the PTH data and the histamine data described hereinabove, in one embodiment, a compound that has activity to decrease PTH level in a subject in the absence of a histamine response is contemplated. In certain embodiments, absence of a histamine response intends a dose of the compound that produces a less than 10-fold, more preferably 8-fold, still more preferably 5-fold, and even still more preferably 3-fold, increase in histamine, measured in vitro in an assay as described herein, where the fold change is determined based on histamine levels before incubation with the compound and after 15 minutes incubation with compound. In a specific embodiment, the histamine response is determined in an in vitro assay using rat peritoneal mast cells isolated from peritoneal lavage of normal Sprague Dawley rats, and where the fold change is determined based on histamine levels before incubation with the compound and after 15 minutes incubation with compound. In the studies conducted herein, the in vitro evaluation of histamine release was performed using isolated rat peritoneal mast cells isolated by peritoneal lavage using cold HBSS+25 mM HEPES pH 7.4 containing heparin (5 u/mL). Cells were washed twice in stimulation buffer (HBSS+25 mM HEPES pH 7.4) and incubated with 10 μM of compound in stimulation buffer (HBSS+25 mM HEPES pH 7.4) for 15 minutes in a 96-well plate ([…]) at 37° C. Cell supernatant was analyzed for histamine using histamine EIA kit (Cayman #589651).
For in vitro evaluation of histamine release, isolated rat peritoneal mast cells were isolated by performing peritoneal lavage using cold HBSS+25 mM HEPES pH 7.4 containing heparin (5 u/mL). Cells were washed twice in stimulation buffer (HBSS+25 mM HEPES pH 7.4) and incubated with 10 μM of compound in stimulation buffer (HBSS+25 mM HEPES pH 7.4) for 15 minutes in a 96-well plate (10^6/well) at 37° C. Cell supernatant was analyzed for histamine using histamine EIA kit (Cayman #589651).

plasma PTH = test: In vivo PTH lowering after IV bolus in isoflurane-anesthetized normal Sprague Dawley rats; set-up: species or system rat; conditions: for % PTH reduction of baseline at 1 hour post IV administration of 0.5 mg/kg compound: isoflurane-anesthetized normal rats, 0.5 mg/kg IV; for 0.5 mg/kg IV bolus % PTH AUC of saline control: normal rats, AUC 1-4 h
Procedure: The peptides were administered intravenously at a dose of 0.5 mg/kg into isoflurane-anesthetized normal Sprague Dawley rats. A control group of rats was treated with saline. Blood was drawn prior to dosing and every hour for 4 hours. Rats were maintained under isoflurane anesthesia for the entire study. […] Percent PTH reduction was calculated according to the following formula: AUCcmpd treated/AUCsaline control*100.
An intravenous (IV) bolus of saline was used as a control. Plasma (K2EDTA) PTH levels were assessed prior to dosing and 1, 2, 3 and 4 hours after dosing. Rats were maintained under isoflurane anesthesia for the entire study. […] In FIG. 2B, PTH is shown as percent of the baseline pre-dose value.
A series of compounds having an L-amino acid residue substituted for a D-amino acid residue were prepared. The compounds were administered as an IV bolus to normal Sprague Dawley rats at a dose of 0.5 mg/kg. An intravenous (IV) bolus of saline was used as a control. […] Rats were maintained under isoflurane anesthesia for the entire study.

| SMILES | Histamine in vitro Fold change of non-treated at 10 uM [1] [fold] | % PTH reduction of baseline at 1 hour post IV administration of 0.5 mg/kg compound (plasma PTH; Table 2) [%] | 0.5 mg/kg IV bolus % PTH AUC of saline control (plasma PTH; Table 2) [%] | 0.5 mg/kg IV bolus % PTH AUC of saline control (plasma PTH; Table 6) [%] | Histamine in vitro Fold change of non-treated at 10 uM ([1]; Table 9, 10 μM, 15 minutes, 37° C.) [fold] |
| --- | --- | --- | --- | --- | --- |
| CC(=O)N[C@H](CS)C(=O)N[C@H](CCCNC(=N)N)C(=O)N[C@H](CCCNC(=N)N)C(=O)N[C@H](C)C(=O)N[C@H](C)C(=O)N[C@H](CCCNC(=N)N)C(=O)N[C@H](CCCNC(=N)N)C(N)=O [SEQ ID NO: 17, Ac-crraarr-NH2] (Ac-[dC][dR][dR][dA][dA][dR][dR]-NH2) | 1.3 | 39 | 102 |  |  |
| CC(=O)N[C@H](CS)C(=O)N[C@H](CCCNC(=N)N)C(=O)N[C@H](C)C(=O)N[C@H](CCCNC(=N)N)C(=O)N[C@H](C)C(=O)N[C@H](CCCNC(=N)N)C(=O)N[C@H](CCCNC(=N)N)C(N)=O [SEQ ID NO: 18, Ac-crararr-NH2] (Ac-[dC][dR][dA][dR][dA][dR][dR]-NH2) | 1.4 | 72 | 87 |  |  |
| CC(=O)N[C@H](CS)C(=O)N[C@H](CCCNC(=N)N)C(=O)N[C@H](CCCNC(=N)N)C(=O)N[C@H](CCCNC(=N)N)C(=O)N[C@H](C)C(=O)N[C@H](C)C(=O)N[C@H](CCCNC(=N)N)C(N)=O [SEQ ID NO: 21, Ac-crrraar-NH2] (Ac-[dC][dR][dR][dR][dA][dA][dR]-NH2) | 1.0 | 36 | 50 |  |  |
| CC(=O)N[C@H](CS)C(=O)N[C@H](C)C(=O)N[C@H](C)C(=O)N[C@H](CCCNC(=N)N)C(=O)N[C@H](CCCNC(=N)N)C(=O)N[C@H](CCCNC(=N)N)C(=O)N[C@H](CCCNC(=N)N)C(N)=O [SEQ ID NO: 22, Ac-caarrrr-NH2] (Ac-[dC][dA][dA][dR][dR][dR][dR]-NH2) | 1.2 | 24 | 48 |  |  |
| CC(=O)N[C@H](CS)C(=O)N[C@H](CCCNC(=N)N)C(=O)N[C@H](C)C(=O)N[C@H](C)C(=O)N[C@H](CCCNC(=N)N)C(=O)N[C@H](CCCNC(=N)N)C(=O)N[C@H](CCCNC(=N)N)C(N)=O [SEQ ID NO: 24, Ac-craarrr-NH2] (Ac-[dC][dR][dA][dA][dR][dR][dR]-NH2) | 1.0 | 8 | 9 |  |  |
| CC(=O)N[C@H](CS)C(=O)N[C@H](C)C(=O)N[C@H](CCCNC(=N)N)C(=O)N[C@H](CCCNC(=N)N)C(=O)N[C@H](CCCNC(=N)N)C(=O)N[C@H](Cc1ccccc1)C(=O)N[C@H](CCCNC(=N)N)C(N)=O [SEQ ID NO: 83, Ac-carrrfr-NH2] (Ac-[dC][dA][dR][dR][dR][dF][dR]-NH2) | 4.0 |  |  | 177 |  |
| CC[C@@H](C)[C@@H](NC(=O)[C@@H](CCCNC(=N)N)NC(=O)[C@@H](CCCNC(=N)N)NC(=O)[C@@H](CCCNC(=N)N)NC(=O)[C@@H](C)NC(=O)[C@@H](CS)NC(C)=O)C(=O)N[C@H](CCCNC(=N)N)C(N)=O [SEQ ID NO: 84, Ac-carrrir-NH2] (Ac-[dC][dA][dR][dR][dR][dI][dR]-NH2) | 1.8 |  |  | 161 |  |
| CC(=O)N[C@H](CS)C(=O)N[C@H](C)C(=O)N[C@H](CCCNC(=N)N)C(=O)N[C@H](CCCNC(=N)N)C(=O)N[C@H](CCCNC(=N)N)C(=O)N[C@H](CC(C)C)C(=O)N[C@H](CCCNC(=N)N)C(N)=O [SEQ ID NO: 85, Ac-carrrlr-NH2] (Ac-[dC][dA][dR][dR][dR][dL][dR]-NH2) |  |  |  | 140 | 2.5 |
| CC(=O)N[C@H](CS)C(=O)N[C@H](C)C(=O)N[C@H](CCCNC(=N)N)C(=O)N[C@H](CCCNC(=N)N)C(=O)N[C@H](CCCNC(=N)N)C(=O)N[C@@H](C(=O)N[C@H](CCCNC(=N)N)C(N)=O)C(C)C [SEQ ID NO: 87, Ac-carrrvr-NH2] (Ac-[dC][dA][dR][dR][dR][dV][dR]-NH2) | 1.2 |  |  | 79 |  |
| CC(=O)N[C@H](CS)C(=O)N[C@H](C)C(=O)N[C@H](CCCNC(=N)N)C(=O)N[C@H](CCCNC(=N)N)C(=O)N[C@H](CCCNC(=N)N)C(=O)N1CCC[C@@H]1C(=O)N[C@H](CCCNC(=N)N)C(N)=O [SEQ ID NO: 88, Ac-carrrpr-NH2] (Ac-[dC][dA][dR][dR][dR][dP][dR]-NH2) | 1.0 |  |  | 76 |  |
| CC(=O)N[C@H](CS)C(=O)N[C@H](C)C(=O)N[C@H](CCCNC(=N)N)C(=O)N[C@H](CCCNC(=N)N)C(=O)N[C@H](CCCNC(=N)N)C(=O)N[C@H](Cc1c[nH]cn1)C(=O)N[C@H](CCCNC(=N)N)C(N)=O [SEQ ID NO: 89, Ac-carrrhr-NH2] (Ac-[dC][dA][dR][dR][dR][dH][dR]-NH2) | 2.0 |  |  | 48 |  |
| CC(=O)N[C@H](CS)C(=O)N[C@H](C)C(=O)N[C@H](CCCNC(=N)N)C(=O)N[C@H](CCCNC(=N)N)C(=O)N[C@H](CCCNC(=N)N)C(=O)N[C@H](CCC(N)=O)C(=O)N[C@H](CCCNC(=N)N)C(N)=O [SEQ ID NO: 90, Ac-carrrqr-NH2] (Ac-[dC][dA][dR][dR][dR][dQ][dR]-NH2) | 0.9 |  |  | 41 |  |
| CC(=O)N[C@H](CS)C(=O)N[C@H](C)C(=O)N[C@H](CCCNC(=N)N)C(=O)N[C@H](CCCNC(=N)N)C(=O)N[C@H](CCCNC(=N)N)C(=O)N[C@@H](C(=O)N[C@H](CCCNC(=N)N)C(N)=O)[C@H](C)O [SEQ ID NO: 91, Ac-carrrtr-NH2] (Ac-[dC][dA][dR][dR][dR][dT][dR]-NH2) | 1.7 |  |  | 18 |  |
| CC(=O)N[C@H](CS)C(=O)N[C@H](C)C(=O)N[C@H](CCCNC(=N)N)C(=O)N[C@H](CCCNC(=N)N)C(=O)N[C@H](CCCNC(=N)N)C(=O)N[C@H](CO)C(=O)N[C@H](CCCNC(=N)N)C(N)=O [SEQ ID NO: 92, Ac-carrrsr-NH2] (Ac-[dC][dA][dR][dR][dR][dS][dR]-NH2) | 1.2 |  |  | 6 |  |
| CC(=O)N[C@H](CS)C(=O)N[C@H](C)C(=O)N[C@H](CCCNC(=N)N)C(=O)N[C@H](CCCNC(=N)N)C(=O)N[C@H](CCCNC(=N)N)C(=O)NCC(=O)N[C@H](CCCNC(=N)N)C(N)=O [SEQ ID NO: 93, Ac-carrrGr-NH2] (Ac-[dC][dA][dR][dR][dR]G[dR]-NH2) | 0.9 |  |  | 5 |  |
| CC(=O)N[C@H](CS)C(=O)NCC(=O)N[C@H](CCCNC(=N)N)C(=O)N[C@H](CCCNC(=N)N)C(=O)N[C@H](CCCNC(=N)N)C(=O)N[C@H](C)C(=O)N[C@H](CCCNC(=N)N)C(N)=O [SEQ ID NO: 95, Ac-cGrrrar-NH2] (Ac-[dC]G[dR][dR][dR][dA][dR]-NH2) | 1.5 |  |  | 45 |  |
